Experimental data from PubChem BioAssay (NCI).
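Following 48 hours of exposure in 96-well plates, responses at five concentrations were used to interpolate endpoints linearly. GI50: concentration for 50% inhibition of growth. TGI: total growth inhibition.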

Columns and labels:
Test in all cases: growth of human tumour cells (NCI), 48 h
[1] = tested on: 786-0 renal
[2] = tested on: A549 NSCLC
[3] = tested on: CCRF-CEM leukemia
[4] = tested on: HT29 colon
[5] = tested on: LOX IMVI melanoma
[6] = tested on: RPMI-8226 leukemia
[7] = tested on: SK-MEL-28 melanoma
[8] = tested on: UACC-257 melanoma
[9] = tested on: DU-145 prostate
[10] = tested on: TK-10 renal

| SMILES | TGI [1] | TGI [2] | TGI [3] | TGI [4] | TGI [5] | TGI [6] | TGI [7] | TGI [8] | GI50 [1] | GI50 [2] | GI50 [9] | TGI [9] | GI50 [4] | GI50 [5] | GI50 [6] | GI50 [7] | GI50 [10] | TGI [10] | GI50 [8] | GI50 [3] |
| --- | --- | --- | --- | --- | --- | --- | --- | --- | --- | --- | --- | --- | --- | --- | --- | --- | --- | --- | --- | --- |
| CC12CCC(=O)N1c1ccc([N+](=O)[O-])cc1N2 (stereo not given) | > 100 µM | > 100 µM | > 100 µM | > 100 µM | > 100 µM | > 100 µM | > 100 µM | > 100 µM |  |  |  |  |  |  |  |  |  |  |  |  |
| C(=N/N(Cc1ccccc1)Cc1ccccc1)/c1ccccc1 | > 100 µM | > 100 µM |  | > 100 µM | > 100 µM | > 100 µM | > 100 µM | > 100 µM | > 100 µM | > 100 µM | > 100 µM | > 100 µM | 24.7 µM | > 100 µM | 51.8 µM | > 100 µM | > 100 µM | > 100 µM | 96.9 µM |  |
| Cc1ccccc1NC(=O)C(=O)C(C#N)c1ccccc1C (stereo not given) | > 100 µM | > 100 µM | 89.8 µM | > 100 µM | 39.4 µM | > 100 µM | > 100 µM | > 100 µM |  |  |  |  |  |  |  |  |  | > 100 µM |  |  |
| O=S(=O)(c1cccc(N=C=S)c1)c1cccc(N=C=S)c1 | 29.5 µM | > 100 µM |  |  | 31.6 µM | 83.9 µM | 33.6 µM | 38.5 µM |  |  |  |  |  |  |  |  |  | 40 µM |  |  |
| Cc1ccc(S(=O)(=O)N/N=C(/CC(=O)c2c(C)n([O-])c3ccccc3[n+]2=O)C(=O)Nc2ccccc2C)cc1 | > 100 µM | > 100 µM |  | > 100 µM |  | > 100 µM | > 100 µM | > 100 µM |  |  |  |  |  |  |  |  |  |  |  |  |
| COc1ccc(-c2nc(/C=C3\SC(=NCc4ccccc4)NC3=O)c3ccccn23)cc1 | 0.498 µM | 4.25 µM | > 100 µM | 2.17 µM | 2.72 µM |  | 4.4 µM | 3.51 µM | 0.189 µM | 1.58 µM | 0.685 µM | 1.81 µM | 0.818 µM | 0.964 µM |  | 2 µM | 2.31 µM | 5.24 µM | 1.52 µM | 2.83 µM |
| N#CC(C#N)c1ccc(C(=O)N2CCC[C@H]2CO)cc1 | > 100 µM | > 100 µM | > 100 µM | > 100 µM | > 100 µM | > 100 µM | > 100 µM | > 100 µM |  |  |  |  |  |  |  |  |  | > 100 µM |  |  |
| CC(=O)OCCOCNC(=S)N/N=C/c1cc(Br)cs1 | > 100 µM | > 100 µM | > 100 µM | > 100 µM | > 100 µM | > 100 µM | > 100 µM | > 100 µM |  |  |  |  |  |  |  |  |  | > 100 µM |  |  |
| COCOCC/C=C/C=O | > 100 µM | > 100 µM | > 100 µM | > 100 µM | > 100 µM | > 100 µM | > 100 µM | > 100 µM |  |  |  |  |  |  |  |  |  | > 100 µM |  |  |
| N#CC(c1ccccn1)c1nc2ccccc2[nH]1 (stereo not given) | > 100 µM | > 100 µM | > 100 µM | > 100 µM |  | > 100 µM | > 100 µM | > 100 µM |  |  |  |  |  |  |  |  |  | > 100 µM |  |  |
| CC1(C)CC(=O)C2=C(C1)OC(N)=C(c1nc(-c3ccccc3)cs1)C2c1ccc(Br)cc1 (stereo not given) | > 150 µg/mL | > 150 µg/mL | > 150 µg/mL | > 150 µg/mL | > 150 µg/mL |  | > 150 µg/mL | > 150 µg/mL | 100 µg/mL | 53.1 µg/mL | 70.9 µg/mL | > 150 µg/mL | 67.4 µg/mL | 124 µg/mL |  | 93.8 µg/mL | 76.9 µg/mL | > 150 µg/mL | 97.1 µg/mL | 58.6 µg/mL |
| O=C(CCCCCCN1CC(=O)N2[C@@H](c3ccc(Cl)c(Cl)c3)c3[nH]c4ccccc4c3C[C@H]2C1=O)NO | 9.39 µM | 13.6 µM | > 33.3 µM | 9 µM |  |  | 9.52 µM | 18.2 µM | 4.63 µM | 4.99 µM | 4.01 µM | 15.3 µM | 2.93 µM |  |  | 3.54 µM | 3.51 µM | 10.2 µM | 3.81 µM | 1.07 µM |
| O=C(c1nc2ccccc2[nH]c1=O)C(O)c1ccccc1 (stereo not given) | > 100 µM | > 100 µM | > 100 µM | > 100 µM | > 100 µM | > 100 µM | > 100 µM | > 100 µM |  |  |  |  |  |  |  |  |  | > 100 µM |  |  |
| O=C(O)CCC(=O)c1ccc2sc3ccccc3c2c1 | > 100 µM | > 100 µM |  | > 100 µM | > 100 µM | > 100 µM | > 100 µM | > 100 µM |  |  |  | > 100 µM |  |  |  |  |  | > 100 µM |  |  |
| NC(=O)C(=O)C1CCC2=C(Sc3ccccc3N2)C1=O (stereo not given) | > 100 µM | > 100 µM |  |  | > 100 µM | > 100 µM | > 100 µM | > 100 µM |  |  |  |  |  |  |  |  |  | > 100 µM |  |  |
| Cc1ccc(-c2nc([P+](c3ccccc3)(c3ccccc3)c3ccccc3)c(S(=O)(=O)c3ccc(C)cc3)o2)cc1 | 2.85 µM | 5.14 µM | 6.94 µM | 4.17 µM | 1.3 µM |  | 3.09 µM | 3.7 µM | 1.46 µM | 2 µM | 1.27 µM | 2.52 µM | 1.7 µM | 0.328 µM |  | 1.7 µM | 1.73 µM | 3.27 µM | 1.7 µM | 0.606 µM |
| O=C(O)c1cccc(C(=O)O)c1S(=O)Cc1ccccc1 (stereo not given) | > 100 µM | > 100 µM |  | > 100 µM | > 100 µM | > 100 µM | > 100 µM | > 100 µM |  |  |  | > 100 µM |  |  |  |  |  | > 100 µM |  |  |
| COc1ncnc(NS(=O)(=O)c2ccc(N=C3C(=O)N(CN4CCN(c5c(F)cc6c(=O)c(C(=O)O)cn(C7CC7)c6c5OC)CC4C)c4ccc(Br)cc43)cc2)c1OC (stereo not given) | > 50 µM | > 50 µM |  | > 50 µM | 31.4 µM | 22.3 µM | > 50 µM | > 50 µM | 38.8 µM | 4.78 µM | 10.9 µM | 37.3 µM | 15.6 µM | 1.22 µM | 5.54 µM | > 50 µM | 2.47 µM | > 50 µM | 16.9 µM |  |
